# Results reported in patent US12410175B2, “Compounds” (INTRA-CELLULAR THERAPIES, INC., priority 2019, dated 2025).
# What was measured:
# hPDE7B = hPDE7B (Homo sapiens, UniProt Q9NP56); assay: PDE selectivity assay, hPDE7B; assay type: biochemical; conditions: PDE Target hPDE7B
# r-bovine PDE5 = r-bovine PDE5 (Bos taurus, UniProt Q28156); assay: PDE selectivity assay, r-bovine PDE5; assay type: biochemical; conditions: PDE Target r-bovine PDE5
# PDE1B = biological target: T1, PDE1B (Homo sapiens, UniProt Q01064); assay: IMAP phosphodiesterase assay, PDE1B; assay type: biochemical; conditions: PDE Target PDE1B
# T1 construct: recombinant full length human PDEl A and PDE1B; made in house; host or cells: HEK or SF9 cells
# Text: Measurement of PDEIB Inhibition In Vitro Using IMAP Phosphodiesterase Assay Kit
# Phosphodiesterase I B (PDEIB) is a calcium/calmodulin dependent phosphodiesterase enzyme that converts cyclic guanosine monophosphate (cGMP) to 5′-guanosine monophosphate (5′-GMP). PDEIB can also convert a modified cGMP substrate, such as the fluorescent molecule cGMP-fluorescein, to the corresponding GMP-fluorescein. The generation of GMP-fluorescein from cGMP-fluorescein can be quantitated, using, for example, the IMAP (Molecular Devices, Sunnyvale, CA) immobilized-metal affinity particle reagent.
# Briefly, the IMAP reagent binds with high affinity to the free 5′-phosphate that is found in GMP-fluorescein and not in cGMP-fluorescein. The resulting GMP-fluorescein-IMAP complex is large relative to cGMP-fluorescein. Small fluorophores that are bound up in a large, slowly tumbling, complex can be distinguished from unbound fluorophores, because the photons emitted as they fluoresce retain the same polarity as the photons used to excite the fluorescence.
# In the phosphodiesterase assay, cGMP-fluorescein, which cannot be bound to IMAP, and therefore retains little fluorescence polarization, is converted to GMP-fluorescein, which, when bound to IMAP, yields a large increase in fluorescence polarization (Amp). Inhibition of phosphodiesterase, therefore, is detected as a decrease in Amp.
# Materials: All chemicals are available from Sigma-Aldrich (St. Louis, MO) except for IMAP reagents (reaction buffer, binding buffer, FL-GMP and IMAP beads), which are available from Molecular Devices (Sunnyvale, CA). […]
# The FL-GMP conversion reaction is initiated by combining 4 parts enzyme and inhibitor mix with 1 part substrate solution (0.225 μM) in a 384-well microtiter plate. […] The plate is incubated at room temperature for 1 hour to allow IMAP binding to proceed to completion, and then placed in an Envision multimode microplate reader (PerkinElmer, Shelton, CT) to measure the fluorescence polarization (Amp).
# A decrease in GMP concentration, measured as decreased Amp, is indicative of inhibition of PDE activity.
# hPDE2A = hPDE2A (Homo sapiens, UniProt O00408); assay: PDE selectivity assay, hPDE2A; assay type: biochemical; conditions: PDE Target hPDE2A
# hPDE9A = hPDE9A (Homo sapiens, UniProt O76083); assay: PDE selectivity assay, hPDE9A; assay type: biochemical; conditions: PDE Target hPDE9A
# PDE1C = PDE1C (Homo sapiens, UniProt Q14123); assay: IMAP phosphodiesterase assay, PDE1C; assay type: biochemical; conditions: PDE Target PDE1C
# hPDE3B = hPDE3B (Homo sapiens, UniProt Q13370); assay: PDE selectivity assay, hPDE3B; assay type: biochemical; conditions: PDE Target hPDE3B
# hPDE4A1A = hPDE4A1A (Homo sapiens, UniProt P27815); assay: PDE selectivity assay, hPDE4A1A; assay type: biochemical; conditions: PDE Target hPDE4A1A
# hPDE11 = hPDE11 (Homo sapiens, UniProt Q9HCR9); assay: PDE selectivity assay, hPDE11; assay type: biochemical; conditions: PDE Target hPDE11
# bovine PDE6 = biological target: T2, bovine PDE6 (Bos taurus, UniProt P11541+P23439); assay: PDE selectivity assay, bovine PDE6; assay type: biochemical; conditions: PDE Target bovine PDE6
# T2 sequence (P11541 2-856 limits assumed): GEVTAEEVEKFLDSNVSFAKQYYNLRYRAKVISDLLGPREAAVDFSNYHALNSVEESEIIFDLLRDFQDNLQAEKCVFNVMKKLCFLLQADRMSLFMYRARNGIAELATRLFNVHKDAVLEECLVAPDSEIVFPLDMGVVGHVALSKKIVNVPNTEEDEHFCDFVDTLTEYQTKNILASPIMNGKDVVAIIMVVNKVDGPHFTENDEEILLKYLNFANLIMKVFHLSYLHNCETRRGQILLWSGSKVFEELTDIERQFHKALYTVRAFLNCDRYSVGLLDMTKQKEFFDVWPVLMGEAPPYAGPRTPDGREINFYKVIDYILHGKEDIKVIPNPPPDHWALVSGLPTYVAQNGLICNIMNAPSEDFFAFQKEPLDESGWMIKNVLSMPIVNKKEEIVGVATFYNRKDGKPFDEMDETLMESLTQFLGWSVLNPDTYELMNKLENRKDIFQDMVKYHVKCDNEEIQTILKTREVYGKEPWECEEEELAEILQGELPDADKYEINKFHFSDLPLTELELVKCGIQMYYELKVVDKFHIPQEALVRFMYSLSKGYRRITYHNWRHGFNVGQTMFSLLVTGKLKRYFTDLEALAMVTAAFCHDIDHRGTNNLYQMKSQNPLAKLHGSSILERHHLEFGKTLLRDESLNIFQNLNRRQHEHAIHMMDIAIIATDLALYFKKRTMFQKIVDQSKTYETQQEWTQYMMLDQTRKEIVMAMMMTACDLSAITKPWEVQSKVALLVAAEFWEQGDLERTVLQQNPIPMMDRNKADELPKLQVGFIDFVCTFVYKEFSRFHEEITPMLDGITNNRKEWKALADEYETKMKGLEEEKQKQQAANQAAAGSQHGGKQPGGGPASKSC
# T2 sequence (P23439 2-850 limits assumed): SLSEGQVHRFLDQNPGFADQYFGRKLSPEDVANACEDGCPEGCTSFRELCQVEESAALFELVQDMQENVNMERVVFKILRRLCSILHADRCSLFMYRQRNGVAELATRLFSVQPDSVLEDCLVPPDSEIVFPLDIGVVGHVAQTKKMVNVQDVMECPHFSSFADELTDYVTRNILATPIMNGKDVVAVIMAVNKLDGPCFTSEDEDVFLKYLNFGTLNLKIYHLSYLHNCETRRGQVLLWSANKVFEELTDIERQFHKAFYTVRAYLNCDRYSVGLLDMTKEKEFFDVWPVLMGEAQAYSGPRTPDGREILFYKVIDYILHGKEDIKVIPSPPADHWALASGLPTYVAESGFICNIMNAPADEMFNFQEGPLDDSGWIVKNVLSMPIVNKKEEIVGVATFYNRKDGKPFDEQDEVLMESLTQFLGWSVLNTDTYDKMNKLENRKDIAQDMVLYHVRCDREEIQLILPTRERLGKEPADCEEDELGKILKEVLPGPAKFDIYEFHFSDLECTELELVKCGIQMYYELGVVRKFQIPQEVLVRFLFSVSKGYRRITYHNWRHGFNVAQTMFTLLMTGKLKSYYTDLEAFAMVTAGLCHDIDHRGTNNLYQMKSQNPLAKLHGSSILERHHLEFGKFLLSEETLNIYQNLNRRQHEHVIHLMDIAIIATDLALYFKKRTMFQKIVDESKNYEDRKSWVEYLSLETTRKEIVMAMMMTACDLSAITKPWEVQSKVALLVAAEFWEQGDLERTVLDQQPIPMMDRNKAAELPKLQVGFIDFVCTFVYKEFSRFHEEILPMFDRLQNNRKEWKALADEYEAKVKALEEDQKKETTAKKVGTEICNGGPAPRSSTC
# PDE1A = biological target: T3, PDE1A (Homo sapiens, UniProt P54750); assay: IMAP phosphodiesterase assay, PDE1A; assay type: biochemical; conditions: PDE Target PDE1A
# T3 construct: recombinant full length human PDEl A and PDE1B; made in house; host or cells: HEK or SF9 cells
# hPDE8A = hPDE8A (Homo sapiens, UniProt O60658); assay: PDE selectivity assay, hPDE8A; assay type: biochemical; conditions: PDE Target hPDE8A
# hPDE10A = hPDE10A (Homo sapiens, UniProt Q9Y233); assay: PDE selectivity assay, hPDE10A; assay type: biochemical; conditions: PDE Target hPDE10A
# [1] = Circulating metabolites in human plasma after oral administration of Compound 1; assay type: in vivo; conditions: after oral administration of Compound 1 (parent)
# Chain of hPDE3B (Q13370 whole entry): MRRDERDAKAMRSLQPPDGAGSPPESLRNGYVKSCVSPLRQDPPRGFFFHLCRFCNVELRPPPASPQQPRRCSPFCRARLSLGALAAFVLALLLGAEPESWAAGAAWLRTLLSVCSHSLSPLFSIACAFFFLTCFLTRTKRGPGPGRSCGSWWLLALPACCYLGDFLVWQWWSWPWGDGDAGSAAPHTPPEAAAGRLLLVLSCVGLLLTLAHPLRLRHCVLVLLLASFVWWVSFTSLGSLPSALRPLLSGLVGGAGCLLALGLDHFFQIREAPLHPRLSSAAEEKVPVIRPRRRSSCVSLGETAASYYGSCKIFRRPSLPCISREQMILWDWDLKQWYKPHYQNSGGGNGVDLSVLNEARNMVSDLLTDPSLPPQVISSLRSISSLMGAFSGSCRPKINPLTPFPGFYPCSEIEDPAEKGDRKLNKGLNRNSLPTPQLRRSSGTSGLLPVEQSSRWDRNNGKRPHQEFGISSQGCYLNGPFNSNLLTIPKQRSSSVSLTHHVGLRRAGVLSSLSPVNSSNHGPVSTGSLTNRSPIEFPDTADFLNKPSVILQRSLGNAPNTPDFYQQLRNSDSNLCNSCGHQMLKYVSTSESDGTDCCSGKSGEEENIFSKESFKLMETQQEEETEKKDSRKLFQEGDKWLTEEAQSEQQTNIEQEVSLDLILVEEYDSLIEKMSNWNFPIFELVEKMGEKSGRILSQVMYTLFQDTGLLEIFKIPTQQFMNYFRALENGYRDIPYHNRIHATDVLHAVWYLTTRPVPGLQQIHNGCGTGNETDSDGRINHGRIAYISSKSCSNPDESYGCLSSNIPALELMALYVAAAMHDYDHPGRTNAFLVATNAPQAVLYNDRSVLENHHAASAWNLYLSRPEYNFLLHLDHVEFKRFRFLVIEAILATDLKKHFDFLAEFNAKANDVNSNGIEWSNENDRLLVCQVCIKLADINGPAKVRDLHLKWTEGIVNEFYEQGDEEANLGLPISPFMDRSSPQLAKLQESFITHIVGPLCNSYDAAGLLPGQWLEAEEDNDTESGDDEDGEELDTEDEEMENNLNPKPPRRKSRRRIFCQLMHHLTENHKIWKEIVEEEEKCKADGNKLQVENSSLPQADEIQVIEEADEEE
# Chain of hPDE10A (Q9Y233 whole entry): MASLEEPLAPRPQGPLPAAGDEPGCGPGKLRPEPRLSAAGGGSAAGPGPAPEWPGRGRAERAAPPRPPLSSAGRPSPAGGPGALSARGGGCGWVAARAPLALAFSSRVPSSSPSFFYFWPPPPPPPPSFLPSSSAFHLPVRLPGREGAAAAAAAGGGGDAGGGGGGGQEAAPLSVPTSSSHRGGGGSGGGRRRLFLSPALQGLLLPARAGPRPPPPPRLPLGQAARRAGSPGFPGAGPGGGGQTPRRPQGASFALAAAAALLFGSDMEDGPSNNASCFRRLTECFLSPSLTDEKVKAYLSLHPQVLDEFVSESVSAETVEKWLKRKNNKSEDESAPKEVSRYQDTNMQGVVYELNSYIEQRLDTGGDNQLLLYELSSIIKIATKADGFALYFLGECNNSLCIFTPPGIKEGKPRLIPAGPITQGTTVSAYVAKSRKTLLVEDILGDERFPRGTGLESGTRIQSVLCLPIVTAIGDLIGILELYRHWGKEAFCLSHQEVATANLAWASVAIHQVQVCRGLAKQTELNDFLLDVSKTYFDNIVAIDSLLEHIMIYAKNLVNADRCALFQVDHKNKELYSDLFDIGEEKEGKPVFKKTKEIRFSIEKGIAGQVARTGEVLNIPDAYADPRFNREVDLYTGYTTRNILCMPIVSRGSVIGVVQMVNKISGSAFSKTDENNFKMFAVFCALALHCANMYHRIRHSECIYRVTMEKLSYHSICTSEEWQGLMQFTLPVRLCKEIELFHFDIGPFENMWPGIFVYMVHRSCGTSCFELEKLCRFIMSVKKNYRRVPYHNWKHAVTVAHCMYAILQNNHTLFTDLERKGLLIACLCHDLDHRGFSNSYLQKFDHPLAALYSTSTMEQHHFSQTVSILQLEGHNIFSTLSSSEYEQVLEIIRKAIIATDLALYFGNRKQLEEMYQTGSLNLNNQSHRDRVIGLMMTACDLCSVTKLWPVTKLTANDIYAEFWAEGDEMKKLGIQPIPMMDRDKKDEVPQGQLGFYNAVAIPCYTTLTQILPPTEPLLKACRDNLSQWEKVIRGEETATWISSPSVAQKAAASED
# Chain of hPDE2A (O00408 whole entry): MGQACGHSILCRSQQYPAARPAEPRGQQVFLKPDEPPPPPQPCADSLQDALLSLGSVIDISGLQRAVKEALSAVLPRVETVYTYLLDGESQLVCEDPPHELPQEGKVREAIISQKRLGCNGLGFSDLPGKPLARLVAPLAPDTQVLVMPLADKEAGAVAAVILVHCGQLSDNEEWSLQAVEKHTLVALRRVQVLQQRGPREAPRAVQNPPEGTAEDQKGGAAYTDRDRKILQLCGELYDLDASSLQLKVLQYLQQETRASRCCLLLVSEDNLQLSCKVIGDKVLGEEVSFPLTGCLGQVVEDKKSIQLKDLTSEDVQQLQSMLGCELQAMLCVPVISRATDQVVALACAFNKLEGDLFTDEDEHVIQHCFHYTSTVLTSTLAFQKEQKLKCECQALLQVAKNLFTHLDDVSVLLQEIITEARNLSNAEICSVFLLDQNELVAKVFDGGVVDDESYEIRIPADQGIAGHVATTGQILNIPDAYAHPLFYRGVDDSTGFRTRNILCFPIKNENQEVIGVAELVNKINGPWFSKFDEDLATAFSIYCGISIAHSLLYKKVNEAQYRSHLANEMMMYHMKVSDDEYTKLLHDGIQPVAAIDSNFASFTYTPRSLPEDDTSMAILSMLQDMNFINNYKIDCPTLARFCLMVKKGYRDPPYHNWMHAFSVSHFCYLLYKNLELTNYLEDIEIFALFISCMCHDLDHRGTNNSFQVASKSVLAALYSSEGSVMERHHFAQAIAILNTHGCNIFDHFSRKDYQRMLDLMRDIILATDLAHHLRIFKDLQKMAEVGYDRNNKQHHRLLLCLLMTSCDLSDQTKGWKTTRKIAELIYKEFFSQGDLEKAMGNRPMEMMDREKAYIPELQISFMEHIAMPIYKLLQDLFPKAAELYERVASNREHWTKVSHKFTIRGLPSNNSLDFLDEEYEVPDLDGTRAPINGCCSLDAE
# Chain of hPDE9A (O76083 whole entry): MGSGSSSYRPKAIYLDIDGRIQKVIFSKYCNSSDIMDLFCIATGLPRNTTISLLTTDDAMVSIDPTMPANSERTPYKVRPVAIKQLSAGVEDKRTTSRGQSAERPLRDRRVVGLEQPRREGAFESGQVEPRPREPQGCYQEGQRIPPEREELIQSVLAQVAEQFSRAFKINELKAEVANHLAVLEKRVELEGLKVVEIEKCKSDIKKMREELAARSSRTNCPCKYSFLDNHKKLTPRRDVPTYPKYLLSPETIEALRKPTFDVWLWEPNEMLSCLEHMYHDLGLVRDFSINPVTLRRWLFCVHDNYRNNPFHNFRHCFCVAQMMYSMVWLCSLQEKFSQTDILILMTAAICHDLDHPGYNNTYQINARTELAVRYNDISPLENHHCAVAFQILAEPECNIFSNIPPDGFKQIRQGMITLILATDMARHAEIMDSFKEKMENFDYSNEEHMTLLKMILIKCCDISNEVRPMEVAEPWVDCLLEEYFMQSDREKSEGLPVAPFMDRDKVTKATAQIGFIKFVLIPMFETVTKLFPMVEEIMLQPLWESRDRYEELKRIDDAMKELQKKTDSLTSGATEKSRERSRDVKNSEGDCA
# Chain of hPDE4A1A (P27815 1-647 isoform P27815-4): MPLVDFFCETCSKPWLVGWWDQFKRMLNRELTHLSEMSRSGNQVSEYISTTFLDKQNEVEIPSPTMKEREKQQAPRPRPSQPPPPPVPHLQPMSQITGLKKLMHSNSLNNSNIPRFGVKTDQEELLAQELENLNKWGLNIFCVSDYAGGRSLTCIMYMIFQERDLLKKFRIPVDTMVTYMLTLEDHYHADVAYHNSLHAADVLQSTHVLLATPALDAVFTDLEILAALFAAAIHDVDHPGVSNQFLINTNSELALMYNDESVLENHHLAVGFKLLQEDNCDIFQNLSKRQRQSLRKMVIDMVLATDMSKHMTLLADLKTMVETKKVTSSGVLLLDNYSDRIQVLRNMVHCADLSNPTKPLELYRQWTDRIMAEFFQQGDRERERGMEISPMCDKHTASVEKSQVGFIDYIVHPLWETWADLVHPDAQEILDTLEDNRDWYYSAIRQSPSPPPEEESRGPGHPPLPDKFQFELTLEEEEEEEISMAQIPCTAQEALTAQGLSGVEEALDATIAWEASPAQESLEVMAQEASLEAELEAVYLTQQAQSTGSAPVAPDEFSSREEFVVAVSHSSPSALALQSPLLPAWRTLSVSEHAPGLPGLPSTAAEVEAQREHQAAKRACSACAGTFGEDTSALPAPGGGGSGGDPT
# Chain of hPDE7B (Q9NP56 whole entry): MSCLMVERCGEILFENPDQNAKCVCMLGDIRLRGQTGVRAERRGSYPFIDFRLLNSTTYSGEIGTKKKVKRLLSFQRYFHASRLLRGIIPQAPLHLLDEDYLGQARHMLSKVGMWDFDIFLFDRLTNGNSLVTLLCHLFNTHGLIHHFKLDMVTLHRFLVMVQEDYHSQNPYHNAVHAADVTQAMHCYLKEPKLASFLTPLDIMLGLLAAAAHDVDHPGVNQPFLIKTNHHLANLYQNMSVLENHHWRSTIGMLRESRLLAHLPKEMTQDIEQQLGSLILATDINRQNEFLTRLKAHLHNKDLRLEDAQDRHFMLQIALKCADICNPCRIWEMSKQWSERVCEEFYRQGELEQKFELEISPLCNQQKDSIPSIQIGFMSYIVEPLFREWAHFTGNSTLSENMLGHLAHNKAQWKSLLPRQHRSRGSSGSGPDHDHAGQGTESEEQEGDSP
IC50 (hPDE7B),IC50 (r-bovine PDE5),IC50 (PDE1B),IC50 (hPDE2A),IC50 (hPDE9A),IC50 (PDE1C),IC50 (hPDE3B),IC50 (hPDE4A1A),IC50 (hPDE11),IC50 (bovine PDE6),IC50 (PDE1A),IC50 (hPDE8A),IC50 (hPDE10A),share of the total circulating drug related materials in human plasma [1],Compound
6610 nM,2480 nM,29 nM,> 100000 nM,> 100000 nM,1.3 nM,49700 nM,3660 nM,5440 nM,4340 nM,1.3 nM,4170 nM,> 100000 nM,,CN1C(=O)c2c(nn(Cc3ccc(-c4cccc(F)n4)cc3)c2Nc2ccc(O)cc2)N2C1=N[C@@H]1CCC[C@@H]12 [Compound 1]
118 nM,3.1 nM,0.015 nM,~10000 nM,> 10000 nM,0.042 nM,~10000 nM,22 nM,454 nM,34 nM,0.042 nM,418 nM,> 10000 nM,,CN1C(=O)c2c(nn(Cc3ccc(-c4cccc(F)n4)cc3)c2Nc2ccccc2)N2C1=N[C@]1(O)CCC[C@H]21 [Compound 2]
1240 nM,156 nM,1.4 nM,73400 nM,> 100000 nM,5.4 nM,20900 nM,840 nM,396 nM,294 nM,6.3 nM,3420 nM,67400 nM,,CN1C(=O)c2c(nn(Cc3ccc(-c4cccc(F)n4)cc3)c2Nc2ccc(O)cc2)N2C1=N[C@]1(O)CCC[C@H]21 [Compound 3]
,,,,,,,,,,,,,84%,CN1C(=O)c2c(nn(Cc3ccc(-c4cccc(F)n4)cc3)c2Nc2ccccc2)N2C1=N[C@]1(O)CCC[C@H]21 [M-I]
